Laboratory results as given in US9156792B2, “Retinamide and uses thereof” (UNIVERSITY OF MARYLAND, BALTIMORE, priority 2008, dated 2015).

Key:
[1] = system: PC-3 prostate cancer cells; assay: MTT assay of PC-3 prostate cancer cell growth (proliferation) inhibition; type: cell-based, human; details: PC-3 cells; for GI50: Homo sapiens, 144 h, 6 days of treatment, read-out: GI50 Values (concentrations that cause 50% growth inhibition); for potency (growth inhibition) compared with VN/66-1: side by side with VN/66-1
Description: Data are means (SEM<±5%) of at least three independent experiments.
Compounds VNLG/145, VNLG/146, VNLG/147, VNLG/148, VNLG/152 and VNLG/153 were tested and evaluated for their ability to inhibit the growth (proliferation) of PC-3 prostate cancer cells using the MTT [3-(4,5-dimethylthiazol-2-yl)-2,5-diphenyltetrazolium bromide] assay (Gediyal et al. 2005). VN/66-1 of U.S. Pat. No. 7,265,143 was tested side by side for comparison. The GI50 values (concentrations that cause 50% growth inhibition) were determined from dose-response curves. See in FIG. 1 for VNLG/145.
The growth inhibitory experiments with the other compounds gave plots that were similar to FIG. 1.

RARα,β,γ receptors = details: compared with ATRA; cited from earlier work

Row | GI50 [1] [nM] | Structure (SMILES) | potency (growth inhibition) compared with VN/66-1 [1] | other results
1 | 14100 ± 7120 | CC1=C(/C=C/C(C)=C/C=C/C(C)=C/C(=O)Nc2cc(C(F)(F)F)ccc2C(F)(F)F)C(C)(C)CCC1n1ccnc1 (stereo not drawn) | – | –
2 | 5620 ± 370 | CC1=C(/C=C/C(C)=C/C=C/C(C)=C/C(=O)Nc2ncnc3[nH]cnc23)C(C)(C)CCC1n1ccnc1 (stereo not drawn) | – | –
3 | 1700 ± 50 | CC1=C(/C=C/C(C)=C/C=C/C(C)=C/C(=O)Nc2ccc(O)cc2)C(C)(C)CCC1n1ccnc1 (stereo not drawn) | – | –
4 | – | CC1=C(/C=C/C(C)=C/C=C/C(C)=C/C(=O)O)C(C)(C)CCC1n1ccnc1 (stereo not drawn) [VN/14-1] | – | binding and activation of RARα,β,γ receptors (RARα,β,γ receptors): binds and activates the RARα,β,γ receptors, albeit it is significantly less potent than ATRA
5 | – | CC1=C(/C=C/C(C)=C/C=C/C(C)=C/C(=O)NC(C)(C)C)C(C)(C)CCC1n1ccnc1 (stereo not drawn) [VNLG/145] | potencies similar to VN/66-1 | –
6 | – | CC1=C(/C=C/C(C)=C/C=C/C(C)=C/C(=O)Nc2ccccc2O)C(C)(C)CCC1n1ccnc1 (stereo not drawn) [VNLG/147] | potencies similar to VN/66-1 | –
7 | – | CC1=C(/C=C/C(C)=C/C=C/C(C)=C/C(=O)Nc2ccc(F)cc2)C(C)(C)CCC1n1ccnc1 (stereo not drawn) [VNLG/152] | potencies better than VN/66-1 | –
8 | – | CC1=C(/C=C/C(C)=C/C=C/C(C)=C/C(=O)Nc2ccccc2)C(C)(C)CCC1n1ccnc1 (stereo not drawn) [VNLG/153] | potencies better than VN/66-1 | –
9 | 1860 ± 50 | CC1=C(/C=C/C(C)=C/C=C/C(C)=C/C(=O)NC(C)(C)C)C(C)(C)CCC1n1ccnc1 (stereo not drawn) [drawing 35] | – | –
10 | 1700 ± 70 | CC1=C(/C=C/C(C)=C/C=C/C(C)=C/C(=O)Nc2ccccc2O)C(C)(C)CCC1n1ccnc1 (stereo not drawn) [drawing 37] | – | –
11 | 610 ± 110 | CC1=C(/C=C/C(C)=C/C=C/C(C)=C/C(=O)Nc2ccc(F)cc2)C(C)(C)CCC1n1ccnc1 (stereo not drawn) [drawing 39] | – | –
12 | 1170 ± 50 | CC1=C(/C=C/C(C)=C/C=C/C(C)=C/C(=O)Nc2ccccc2)C(C)(C)CCC1n1ccnc1 (stereo not drawn) [drawing 40] | – | –
